Reference: patent US9315502B2, “Imidazopyridine derivatives” (Hoffmann-La Roche Inc., priority 2012, dated 2016)

How the values were obtained:
[1] = tested on: human embryonic stem cell derived neural stem cells (NSCs); assay: Neural Stem Cell Proliferation Assay (neurogenesis assay, ATP levels by CellTiterGlo); type: cell-based; conditions: 96 h, compound concentration at which 150% activity of control (100%) is reached, NSC proliferation, 4 days incubation
Procedure: Neural Stem Cell Proliferation Assay
Neurogenic properties of small molecules are determined based on the proliferation of human embryonic stem cell derived neural stem cells (NSCs) which were derived via a dual smad inhibition as previously described (Chambers, S. M., et al., Highly efficient neural conversion of human ES and iPS cells by dual inhibition of SMAD signaling, Nature biotechnology, 2009. 27(3): p. 275-80.)
Compounds respond is measured by the increase in cells based on ATP levels
(Promega:CellTiterGlo®) after an incubation period of 4 days.
NSCs are thawed and expanded over 3 passages. On the 14th day, NSCs are seeded in Polyornithin/Laminin coated 384 well plates at a cell density of 21′000 cells/cm^2 in a media volume of 38 μl.
4 hours after cell seeding, compound solutions are added at a volume of 2 μl. Stock solutions of the compounds (water, 5% DMSO) are diluted to obtain a dose response (11 points, dilution factor is 2), ranging from 8 μM to 8 nM. Controls are run to consistently determine the neurogenic properties of the cells:
Negative (neutral) control is cell culture Media (final DMSO concentration: 0.25%). Positive controls are: • 1. cell culture Media+100 ng/ml FGF2 (final DMSO concentration: 0.1%) • 2. cell culture Media+20 ng/ml EGF (final DMSO concentration: 0.1%) • 3. cell culture Media+100 ng/ml Wnt3a (final DMSO concentration: 0.1%)
After 4 days incubation at 37° C., 5% CO2, the amount of ATP per well is quantified. The ATP concentration is proportional to the cell number. ATP is quantified by using the Promega CellTiterGlo® kit. The CellTiterGlo® reagents contain a cell lysis buffer, a thermo stable luciferase (UltraGlo™ recombinant luciferase), magnesium and luciferin. Luciferin reacts with ATP producing oxyluciferin, AMP and light. The luminescence signal is proportional to the ATP content.
The value of negative (neutral) control is determined for each assay plate by taking the average of 16 negative control wells. The neurogenic compound response is calculated for each compound as (compound/Negative Control)* 100.
The values of EC150 from the dose response curve are determined for each test compound. The EC150 is the compound concentration at which 150% activity of control (100%) is reached.

| melting point [°C] | Compound | EC (150% of control) [1] [µM] |
| --- | --- | --- |
| 172 | Fc1ccc(-c2cnc3ccc(-c4ccnn4-c4ccc(F)cc4)cn23)cc1 [Example 1, 3-(4-Fluoro-phenyl)-6-[2-(4-fluoro-phenyl)-2H-pyrazol-3-yl]-imidazo[1,2-a]pyridine] | 0.019 |
| 172.5 | Clc1ccc(-c2cnc3ccc(-c4ccnn4-c4ccc(Cl)cc4)cn23)cc1 [Example 2, 3-(4-Chloro-phenyl)-6-[2-(4-chloro-phenyl)-2H-pyrazol-3-yl]-imidazo[1,2-a]pyridine] | 0.1 |
| 147 | Fc1ccc(-c2cnc3ccc(-c4ccnn4-c4ccc(Cl)cc4)cn23)cc1 [Example 3, 6-[2-(4-Chloro-phenyl)-2H-pyrazol-3-yl]-3-(4-fluoro-phenyl)-imidazo[1,2-a]pyridine] | 0.096 |
| 171 | Fc1ccc(-n2nccc2-c2ccc3ncc(-c4ccc(Cl)cc4)n3c2)cc1 [Example 4, 3-(4-Chloro-phenyl)-6-[2-(4-fluoro-phenyl)-2H-pyrazol-3-yl]-imidazo [1,2-a]pyridine] | 0.092 |
| 141 | Cc1ccc(-n2nccc2-c2ccc3ncc(-c4ccc(F)cc4)n3c2)cc1 [Example 5, 3-(4-Fluoro-phenyl)-6-(2-p-tolyl-2H-pyrazol-3-yl)-imidazo[1,2-a]pyridine] | 0.008 |
| 201 | Fc1ccc(-n2nccc2-c2ccc3ncc(-c4ccncc4)n3c2)cc1 [Example 6, 6-[2-(4-Fluoro-phenyl)-2H-pyrazol-3-yl]-3-pyridin-4-yl-imidazo [1,2-a]pyridine] | 0.026 |
| 186 | Clc1ccc(-n2nccc2-c2ccc3ncc(-c4ccncc4)n3c2)cc1 [Example 7, 6-[2-(4-Chloro-phenyl)-2H-pyrazol-3-yl]-3-pyridin-4-yl-imidazo[1,2-a]pyridine] | 0.022 |
| 139 | c1ccc(-c2cnc3ccc(-c4ccnn4-c4ccccc4)cn23)cc1 [Example 8, 3-Phenyl-6-(2-phenyl-2H-pyrazol-3-yl)-imidazo[1,2-a]pyridine] | 0.019 |
| 187 | Fc1ccc(-n2nccc2-c2ccc3ncc(-c4ccc(Cl)cc4F)n3c2)cc1 [Example 9, 3-(4-Chloro-2-fluoro-phenyl)-6-[2-(4-fluoro-phenyl)-2H-pyrazol-3-yl]-imidazo[1,2-a]pyridine] | 0.055 |
| 107 | Cc1ccc(-n2nccc2-c2ccc3ncc(-c4ccccc4)n3c2)cc1 [Example 10, 3-Phenyl-6-(2-p-tolyl-2H-pyrazol-3-yl)-imidazo[1,2-a]pyridine] | 0.009 |
| 148 | Fc1cc(Cl)ccc1-c1cnc2ccc(-c3ccnn3-c3ccc(Cl)cc3)cn12 [Example 11, 3-(4-Chloro-2-fluoro-phenyl)-6-[2-(4-chloro-phenyl)-2H-pyrazol-3-yl]-imidazo[1,2-a]pyridine] | 0.089 |
| 142 | COc1ccc(-c2cnc3ccc(-c4ccnn4-c4ccc(Cl)cc4)cn23)cc1 [Example 12, 6-[2-(4-Chloro-phenyl)-2H-pyrazol-3-yl]-3-(4-methoxy-phenyl)-imidazo [1,2-a]pyridine] | 0.045 |
| 162 | COc1ccc(-c2cnc3ccc(-c4ccnn4-c4ccc(F)cc4)cn23)cc1 [Example 13, 6-[2-(4-Fluoro-phenyl)-2H-pyrazol-3-yl]-3-(4-methoxy-phenyl)-imidazo [1,2-a]pyridine] | 0.024 |
| 168 | Fc1ccc(-n2nccc2-c2ccc3ncc(-c4ccc(F)cc4F)n3c2)cc1 [Example 14, 3-(2,4-Difluoro-phenyl)-6-[2-(4-fluoro-phenyl)-2H-pyrazol-3-yl]-imidazo[1,2-a]pyridine] | 0.053 |
| 152 | Fc1ccc(-c2cnc3ccc(-c4ccnn4-c4ccc(Cl)cc4)cn23)c(F)c1 [Example 15, 6-[2-(4-Chloro-phenyl)-2H-pyrazol-3-yl]-3-(2,4-difluoro-phenyl)-imidazo[1,2-a]pyridine] | 0.029 |
| 206 | Fc1ccc(-c2cnc3ccc(-c4cncn4-c4ccc(F)cc4)cn23)cc1 [Example 16, 3-(4-Fluoro-phenyl)-6-[3-(4-fluoro-phenyl)-3H-imidazol-4-yl]-imidazol[1,2-a]pyridine] | 0.053 |
| 167 | FC(F)(F)c1ccc(-c2cnc3ccc(-c4ccnn4-c4ccc(Cl)cc4)cn23)cc1 [Example 17, 6-[2-(4-Chloro-phenyl)-2H-pyrazol-3-yl]-3-(4-trifluoromethyl-phenyl)-imidazo[1,2-a]pyridine] | 0.38 |
| 172 | Fc1ccc(-n2nccc2-c2ccc3ncc(-c4ccc(C(F)(F)F)cc4)n3c2)cc1 [Example 18, 6-[2-(4-Fluoro-phenyl)-2H-pyrazol-3-yl]-3-(4-trifluoromethyl-phenyl)-imidazo[1,2-a]pyridine] | 0.18 |
| 215 | N#Cc1ccc(-c2cnc3ccc(-c4ccnn4-c4ccc(F)cc4)cn23)cc1 [Example 19, 4-{6-[2-(4-Fluoro-phenyl)-2H-pyrazol-3-yl]-imidazo [1,2-a]pyridin-3-yl}-benzonitrile] | 0.03 |
| 208 | N#Cc1ccc(-c2cnc3ccc(-c4ccnn4-c4ccc(Cl)cc4)cn23)cc1 [Example 20, 4-{6-[2-(4-Chloro-phenyl)-2H-pyrazol-3-yl]-imidazo[1,2-a]pyridin-3-yl}-benzonitrile] | 0.04 |
| 259 | CS(=O)(=O)c1ccc(-c2cnc3ccc(-c4ccnn4-c4ccc(Cl)cc4)cn23)cc1 [Example 21, 6-[2-(4-Chloro-phenyl)-2H-pyrazol-3-yl]-3-(4-methanesulfonyl-phenyl)-imidazo[1,2-a]pyridine] | 0.25 |
| 226 | CS(=O)(=O)c1ccc(-c2cnc3ccc(-c4ccnn4-c4ccc(F)cc4)cn23)cc1 [Example 22, 6-[2-(4-Fluoro-phenyl)-2H-pyrazol-3-yl]-3-(4-methanesulfonyl-phenyl)-imidazo[1,2-a]pyridine] | 0.24 |
| 147 | Fc1ccc(-c2cnc3ccc(-c4ccnn4-c4ccc(C(F)(F)F)cc4)cn23)cc1 [Example 23, 3-(4-Fluoro-phenyl)-6-[2-(4-trifluoromethyl-phenyl)-2H-pyrazol-3-yl]-imidazo[1,2-a]pyridine] | 0.79 |
| 201 | N#Cc1ccc(-c2cnc3ccc(-c4ccnn4-c4ccc(C(F)(F)F)cc4)cn23)cc1 [Example 24, 4-{6-[2-(4-Trifluoromethyl-phenyl)-2H-pyrazol-3-yl]-imidazo [1,2-a]pyridin-3-yl}-benzonitrile] | 2.6 |
